Activity calls are given as the source filed them. The rule behind the calls is not given here.
How the values were obtained:
[1] = target: T1, Poly [ADP-ribose] polymerase 1 (Homo sapiens, UniProt P09874); assay: Inhibition of recombinant human full-length PARP-1 using biotinylated substrate
[2] = Acute toxicity in ICR mouse assessed as death at 1000 mg/kg, po administered only once at day 1 and measured after 5 to 8 days; format: organism-based; conditions: in vivo, time 5-8 day
[3] = tested on: A549; assay: Cytotoxicity against human A549 cells assessed as reduction in cell viability at 0.1 to 10 uM incubated for 48 hrs by MTT assay; format: functional, cell-based; conditions: dose 0.1-10 µM
[4] = species: Homo sapiens; assay: Selectivity index, ratio of IC50 for inhibition of recombinant human full-length PARP-2 to IC50 for inhibition of recombinant human full-length PARP-1
[5] = tested on: SK-OV-3; assay: Cytotoxicity against human BRCA-1 deficient SK-OV-3 cells assessed as reduction in cell viability at 0.1 to 10 uM incubated for 48 hrs by MTT assay; format: functional, cell-based; conditions: dose 0.1-10 µM
[6] = target: T2, Poly [ADP-ribose] polymerase 2 (Homo sapiens, UniProt Q9UGN5); assay: Inhibition of recombinant human full-length PARP-2 using biotinylated substrate
T2 sequence (Q9UGN5 whole entry): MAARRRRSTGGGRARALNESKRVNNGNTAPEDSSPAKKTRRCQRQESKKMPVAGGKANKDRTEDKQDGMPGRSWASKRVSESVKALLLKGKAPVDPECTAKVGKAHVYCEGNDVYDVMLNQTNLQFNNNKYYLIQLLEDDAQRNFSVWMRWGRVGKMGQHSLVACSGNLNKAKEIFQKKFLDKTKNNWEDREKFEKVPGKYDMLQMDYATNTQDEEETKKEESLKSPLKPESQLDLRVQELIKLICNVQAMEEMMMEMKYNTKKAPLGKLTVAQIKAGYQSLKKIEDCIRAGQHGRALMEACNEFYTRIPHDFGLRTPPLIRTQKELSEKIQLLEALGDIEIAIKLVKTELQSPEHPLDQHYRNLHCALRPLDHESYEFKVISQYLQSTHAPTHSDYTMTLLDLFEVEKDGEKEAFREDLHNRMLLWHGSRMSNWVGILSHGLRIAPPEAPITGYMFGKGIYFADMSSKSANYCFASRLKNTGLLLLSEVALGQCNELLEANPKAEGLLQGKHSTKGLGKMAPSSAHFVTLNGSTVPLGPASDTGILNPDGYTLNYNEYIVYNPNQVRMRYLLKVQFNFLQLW

[7] = tested on: A549; assay: Cytotoxicity against human A549 cells assessed as induction of CBP cytotoxicity incubated for 48 hrs in presence of CBP by MTT assay; format: functional, cell-based; conditions: dose 0.1-10 µM
[8] = target: T1, Poly [ADP-ribose] polymerase 1; assay: Inhibition of PARP-1 in human SK-OV-3 cells assessed as decrease in MCM7 protein expression level at 0.1 to 10 uM by Western blot analysis; format: cell-based; conditions: dose 0.1-10 µM
[9] = target: T1, Poly [ADP-ribose] polymerase 1; assay: Inhibition of PARP-1 in human SK-OV-3 cells assessed as decrease in MCM2 protein expression level at 0.1 to 10 uM by Western blot analysis; format: cell-based; conditions: dose 0.1-10 µM
[10] = tested on: SK-OV-3; assay: Antitumor activity against human SK-OV-3 cells xenografted in BALB/c nude mouse assessed as decrease in PAR level at 25 to 50 mg/kg, po measured after 28 days by Western blot analysis; format: functional, organism-based; conditions: dose 25-50 mg/kg, time 28.0 day
[11] = target: T1, Poly [ADP-ribose] polymerase 1; assay: Inhibition of PARP-1 in human SK-OV-3 cells assessed as induction of DNA damage by measuring increase in gamma H2AX expression by immunofluorescence assay; format: cell-based
[12] = tested on: SK-OV-3; assay: Antitumor activity against human SK-OV-3 cells xenografted in BALB/c nude mouse assessed as decrease in PAR level at 25 to 50 mg/kg, po measured after 28 days by immunohistochemistry analysis; format: functional, organism-based; conditions: dose 25-50 mg/kg, time 28.0 day
[13] = target: T1, Poly [ADP-ribose] polymerase 1; assay: Inhibition of PARP-1 in human SK-OV-3 cells assessed as decrease in H2O2-induced PAR level preincubated for 4 hrs followed by H2O2 addition by DAPI staining based inverted fluorescence microscopic analysis; format: cell-based
[14] = target: T1, Poly [ADP-ribose] polymerase 1; assay: Inhibition of PARP-1 in human SK-OV-3 cells assessed as decrease in MCM5 protein expression level at 0.1 to 10 uM by Western blot analysis; format: cell-based; conditions: dose 0.1-10 µM
[15] = target: T1, Poly [ADP-ribose] polymerase 1; assay: Inhibition of PARP-1 in human SK-OV-3 cells assessed as decrease in MCM4 protein expression level at 0.1 to 10 uM by Western blot analysis; format: cell-based; conditions: dose 0.1-10 µM
[16] = target: T2, Poly [ADP-ribose] polymerase 2; assay: Binding affinity to PARP-2 in human SK-OV-3 cells assessed as increase in thermal stabilization of PARP-2 at 1 uM after 3 hrs by CETSA; format: cell-based
[17] = tested on: SK-OV-3; assay: Cytotoxicity against human SK-OV-3 cells transfected with PARP-1 siRNA assessed as reduction in cell viability at 0.1 to 10 uM after 48 hrs by MTT assay; format: functional, cell-based; conditions: dose 0.1-10 µM
[18] = target: T1, Poly [ADP-ribose] polymerase 1; assay: Inhibition of PARP-1 in human SK-OV-3 cells assessed as decrease in MCM6 protein expression level at 0.1 to 10 uM by Western blot analysis; format: cell-based; conditions: dose 0.1-10 µM
[19] = target: T1, Poly [ADP-ribose] polymerase 1; assay: Binding affinity to PARP-1 in human SK-OV-3 cells assessed as thermal stabilization after 3 hrs by ITDRF-CETSA; format: cell-based; conditions: dose 0.1-10 µM
[20] = target: T1, Poly [ADP-ribose] polymerase 1; assay: Binding affinity to PARP-1 in human SK-OV-3 cells assessed as increase in thermal stabilization of PARP-1 at 1 uM after 3 hrs by CETSA; format: cell-based
[21] = target: T1, Poly [ADP-ribose] polymerase 1; assay: Inhibition of PARP-1 in human SK-OV-3 cells assessed as decrease in MCM3 protein expression level at 0.1 to 10 uM by Western blot analysis; format: cell-based; conditions: dose 0.1-10 µM
[22] = tested on: A549; assay: Cytotoxicity against human A549 cells transfected with PARP-1 siRNA assessed as sensitization of CBP at 0.1 to 10 uM incubated for 48 hrs in presence of CBP by MTT assay; format: functional, cell-based; conditions: dose 0.1-10 µM
[23] = target: T1, Poly [ADP-ribose] polymerase 1; assay: Inhibition of PARP-1 in human SK-OV-3 cells assessed as decrease in H2O2-induced PAR level at 0.1 to 10 uM preincubated for 4 hrs followed by H2O2 addition by Western blot analysis; format: cell-based; conditions: dose 0.1-10 µM
[24] = tested on: A549; assay: Antitumor activity against human A549 cells xenografted in BALB/c nude mouse assessed as tumor growth inhibition at 50 mg/kg, po administered once daily for 12 days; format: functional, organism-based; conditions: time 12.0 day
[25] = target: T2, Poly [ADP-ribose] polymerase 2; assay: Binding affinity to PARP-2 in human SK-OV-3 cells assessed as thermal stabilization after 3 hrs by ITDRF-CETSA; format: cell-based; conditions: dose 0.1-10 µM
[26] = tested on: SK-OV-3; assay: Antitumor activity against human SK-OV-3 cells xenografted in BALB/c nude mouse assessed as increase in gamma-H2AX expression in tumor at 25 to 50 mg/kg, po measured after 28 days by Western blot analysis; format: functional, organism-based; conditions: dose 25-50 mg/kg, time 28.0 day
[27] = tested on: A549; assay: Antitumor activity against human A549 cells xenografted in BALB/c nude mouse assessed as induction of CBP mediated tumor growth inhibition at 50 mg/kg, po administered once daily for 12 days in presence of CBP; format: functional, organism-based; conditions: time 12.0 day
[28] = tested on: SK-OV-3; assay: Antitumor activity against human SK-OV-3 cells xenografted in BALB/c nude mouse assessed as increase in gamma-H2AX expression in tumor at 25 to 50 mg/kg, po measured after 28 days by immunohistochemistry analysis; format: functional, organism-based; conditions: dose 25-50 mg/kg, time 28.0 day
[29] = tested on: SK-OV-3; assay: Antitumor activity against human SK-OV-3 cells xenografted in BALB/c nude mouse assessed as decrease in tumor volume at 50 mg/kg, po administered once daily measured for 28 days; format: functional, organism-based; conditions: time 28.0 day
[30] = target: T1, Poly [ADP-ribose] polymerase 1; assay: Inhibition of PARP-1 in human SK-OV-3 cells assessed as induction of DNA damage by measuring increase in gamma H2AX expression at 0.1 to 10 uM by Western blot analysis; format: cell-based; conditions: dose 0.1-10 µM
[31] = Acute toxicity in ICR mouse assessed as effect on kidney at 1000 mg/kg, po administered only once at day 1 and measured every two days for 14 days; format: organism-based; conditions: in vivo, 336 h, time 14 day
[32] = Hepatotoxicity in ICR mouse assessed as effect on ALT level at 1000 mg/kg, po administered only once at day 1 and measured every two days for 14 days (reference value: 28.6 +/- 6.9 U/L); format: toxicity, organism-based; conditions: in vivo, 336 h, time 14 day
[33] = Hepatotoxicity in ICR mouse assessed as effect on AST level at 1000 mg/kg, po administered only once at day 1 and measured every two days for 14 days (reference value: 61.5 +/- 3.7 U/L); format: toxicity, organism-based; conditions: in vivo, 336 h, time 14 day
[34] = Renal toxicity in ICR mouse assessed as effect on BUN level at 1000 mg/kg, po administered only once at day 1 and measured every two days for 14 days (reference value: 8.9 +/- 0.9 mmol/L); format: organism-based; conditions: in vivo, 336 h, time 14 day
[35] = Acute toxicity in ICR mouse assessed as effect on spleen at 1000 mg/kg, po administered only once at day 1 and measured every two days for 14 days; format: organism-based; conditions: in vivo, 336 h, time 14 day
[36] = Acute toxicity in ICR mouse assessed as change in blood routine at 1000 mg/kg, po administered only once at day 1 and measured every two days for 14 days; format: organism-based; conditions: in vivo, 336 h, time 14 day
[37] = Acute toxicity in ICR mouse assessed as change in body weight at 1000 mg/kg, po administered only once at day 1 and measured every two days for 14 days; format: organism-based; conditions: in vivo, 336 h, time 14 day

T1 sequence (P09874 whole entry): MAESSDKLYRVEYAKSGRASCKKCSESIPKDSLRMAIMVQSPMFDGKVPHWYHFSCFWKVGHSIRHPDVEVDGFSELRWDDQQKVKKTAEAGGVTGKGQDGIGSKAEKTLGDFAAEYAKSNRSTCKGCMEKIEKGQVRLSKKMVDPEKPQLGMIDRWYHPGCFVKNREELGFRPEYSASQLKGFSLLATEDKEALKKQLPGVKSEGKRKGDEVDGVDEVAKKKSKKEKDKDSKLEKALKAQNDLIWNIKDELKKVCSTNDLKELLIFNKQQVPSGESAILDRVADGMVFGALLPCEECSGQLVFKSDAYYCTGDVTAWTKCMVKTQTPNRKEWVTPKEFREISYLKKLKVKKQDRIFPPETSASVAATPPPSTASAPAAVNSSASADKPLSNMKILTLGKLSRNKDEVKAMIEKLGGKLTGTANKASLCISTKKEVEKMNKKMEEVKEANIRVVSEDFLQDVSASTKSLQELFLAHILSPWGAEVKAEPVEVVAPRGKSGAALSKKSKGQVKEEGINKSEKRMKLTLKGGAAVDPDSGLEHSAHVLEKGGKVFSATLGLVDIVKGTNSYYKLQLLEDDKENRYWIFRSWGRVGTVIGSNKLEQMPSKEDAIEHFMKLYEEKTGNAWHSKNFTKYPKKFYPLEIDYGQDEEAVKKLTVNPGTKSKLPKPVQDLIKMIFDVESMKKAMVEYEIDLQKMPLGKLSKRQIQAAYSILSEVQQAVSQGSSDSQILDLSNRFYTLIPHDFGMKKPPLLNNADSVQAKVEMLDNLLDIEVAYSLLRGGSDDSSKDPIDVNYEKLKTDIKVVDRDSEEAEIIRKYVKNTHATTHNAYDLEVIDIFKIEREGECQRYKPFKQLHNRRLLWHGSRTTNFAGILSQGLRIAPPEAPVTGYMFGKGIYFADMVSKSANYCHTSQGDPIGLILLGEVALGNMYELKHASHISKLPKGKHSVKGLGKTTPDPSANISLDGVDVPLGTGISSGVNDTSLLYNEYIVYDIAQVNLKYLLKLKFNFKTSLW

O=c1cc(-c2ccc(O)cc2)oc2c(CN3CCN(Cc4ccco4)CC3)c(O)cc(O)c12
IC50 [1]: 17.9 nM | Activity [2]: Toxic | Activity [3]: inactive | Ratio IC50 [4]: 72.6 | Activity [5]: Active | IC50 [6]: 1300 nM | Activity [7]: Dose-Dependent Effect

O=c1cc(-c2ccc(O)cc2)oc2c(CN3CCN(Cc4cccs4)CC3)c(O)cc(O)c12
inhibition [8]: Active | inhibition [9]: Active | Activity [10]: Active | inhibition [11]: Active | Activity [12]: Active | inhibition [13]: Active | inhibition [14]: Active | inhibition [15]: Active | Activity [16]: Active | Activity [3]: inactive | Ratio IC50 [4]: 61.2 | Activity [17]: inactive | Activity [5]: Active | inhibition [18]: Active | Activity [19]: Dose-Dependent Effect | Activity [20]: Active | inhibition [21]: Active | Activity [22]: inactive | inhibition [23]: Active | Activity [24]: inactive | Activity [25]: Dose-Dependent Effect | Activity [26]: Active | Activity [27]: Active | Activity [7]: Dose-Dependent Effect | Activity [28]: Active | Activity [29]: Active | inhibition [30]: Active

O=C(c1ccco1)N1CCN(Cc2c(O)cc(O)c3c(=O)cc(-c4ccc(O)cc4)oc23)CC1
Activity [31]: Toxic | Activity [32]: 31.2 U/L | IC50 [1]: 13.7 nM | Activity [33]: 79.3 U/L | Activity [34]: 9.1 mmol/L | Activity [35]: Toxic | Activity [3]: inactive | Ratio IC50 [4]: 68.3 | Activity [5]: Active | IC50 [6]: 800 nM | Activity [36]: Non-Toxic | Activity [7]: Dose-Dependent Effect | Activity [37]: Non-Toxic
